Target: human NaV 1.8 (Homo sapiens, UniProt Q9Y5Y9)
Assay: E-VIPR assay detecting and measuring NaV inhibition properties
Format: cell-based
Details: HEK cells expressing truncated human NaV 1.8; in the presence of human serum (compound numbers followed by *); read-out: IC50 in the E-VIPR Assay, performed in the presence of human serum
In short: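 Membrane potential was followed by coumarin/oxonol FRET during electrical field stimulation of matrigel-seeded HEK cells carrying truncated human NaV1.8 plus KIR2.1. Dosing used 11 points, 3-fold steps, top 300 nM final, 0.625% DMSO, with or without 25% human serum.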

Chain of human NaV 1.8 (Q9Y5Y9 126-399 limits assumed): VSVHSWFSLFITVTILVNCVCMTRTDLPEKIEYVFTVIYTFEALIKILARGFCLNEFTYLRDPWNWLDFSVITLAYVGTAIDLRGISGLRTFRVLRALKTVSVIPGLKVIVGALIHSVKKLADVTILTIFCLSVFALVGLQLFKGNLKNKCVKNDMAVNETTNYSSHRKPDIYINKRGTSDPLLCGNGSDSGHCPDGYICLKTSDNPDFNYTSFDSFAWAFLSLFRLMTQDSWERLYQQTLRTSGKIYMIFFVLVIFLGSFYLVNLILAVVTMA
Chain of human NaV 1.8 (Q9Y5Y9 660-890 limits assumed): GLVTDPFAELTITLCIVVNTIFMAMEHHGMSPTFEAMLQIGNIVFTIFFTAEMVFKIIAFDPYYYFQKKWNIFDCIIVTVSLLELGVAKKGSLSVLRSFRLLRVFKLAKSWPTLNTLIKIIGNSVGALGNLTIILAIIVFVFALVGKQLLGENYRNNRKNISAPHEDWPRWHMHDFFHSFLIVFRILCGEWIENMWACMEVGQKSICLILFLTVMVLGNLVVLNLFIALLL
Chain of human NaV 1.8 (Q9Y5Y9 1148-1722 limits assumed): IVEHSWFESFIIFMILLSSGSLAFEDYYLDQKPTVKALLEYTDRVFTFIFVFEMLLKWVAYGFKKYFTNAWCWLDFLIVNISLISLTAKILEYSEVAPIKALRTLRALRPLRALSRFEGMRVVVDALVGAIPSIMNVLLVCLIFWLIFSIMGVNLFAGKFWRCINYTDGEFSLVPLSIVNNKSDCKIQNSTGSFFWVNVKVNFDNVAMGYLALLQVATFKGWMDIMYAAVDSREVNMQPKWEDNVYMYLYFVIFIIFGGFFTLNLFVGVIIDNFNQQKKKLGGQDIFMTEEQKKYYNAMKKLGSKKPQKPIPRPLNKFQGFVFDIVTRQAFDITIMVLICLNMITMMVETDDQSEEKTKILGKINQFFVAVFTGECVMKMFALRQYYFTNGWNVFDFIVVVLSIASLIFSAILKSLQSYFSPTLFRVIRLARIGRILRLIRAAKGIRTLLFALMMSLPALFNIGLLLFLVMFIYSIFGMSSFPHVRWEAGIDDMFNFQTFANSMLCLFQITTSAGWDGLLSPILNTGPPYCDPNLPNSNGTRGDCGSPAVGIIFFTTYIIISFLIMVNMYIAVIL

Row | SMILES | IC50
1 | COc1c([C@@H]2[C@@H](C(=O)Nc3cc(C(O)CO)ncc3F)O[C@](C)(C(F)(F)F)[C@@H]2C)ccc(F)c1C (single isomer, unassigned) [Compound 139] | ≥ 1 µM
2 | COc1c(C2C(C(=O)Nc3ccnc(C(O)C(C)O)c3)OC(C)(C(F)(F)F)C2C)ccc(F)c1C (single isomer, unassigned) [Compound 143] | ≥ 1 µM

Same assay, conditions: HEK cells expressing truncated human NaV 1.8; no human serum; read-out: IC50 in the E-VIPR Assay

Row | SMILES | IC50
3 | Cc1ncc(NC(=O)[C@@H]2O[C@@](C)(C(F)(F)F)[C@@H](C)[C@H]2c2ccc(F)c(F)c2OCCO)c(C)n1 [Compound 543, (2R,3S,4S,5R)-3-(3,4-difluoro-2-(2-hydroxyethoxy)phenyl)-N-(2,4-dimethylpyrimidin-5-yl)-4,5-dimethyl-5-(trifluoromethyl)tetrahydrofuran-2-carboxamide] | ≥ 1 µM
4 | COc1c([C@H]2[C@H](C(=O)NC3(c4ccccc4)COC3)O[C@@](C)(C(F)(F)F)[C@H]2C)ccc(F)c1F [Compound 306, (2R,3S,4S,5R)-3-(3,4-difluoro-2-methoxyphenyl)-4,5-dimethyl-N-(3-phenyloxetan-3-yl)-5-(trifluoromethyl)tetrahydrofuran-2-carboxamide] | ≥ 1 µM
5 | C[C@H]1[C@@H](c2ccc(F)c(F)c2O)[C@H](C(=O)Nc2ccc(C(N)=O)nc2)O[C@@]1(C)C(F)(F)F [Compound 649, 5-[[(2R,3S,4S,5R)-3-(3,4-difluoro-2-hydroxy-phenyl)-4,5-dimethyl-5-(trifluoromethyl)tetrahydrofuran-2-carbonyl]amino]pyridine-2-carboxamide] | 0.1 to 1 µM
6 | COc1c([C@@H]2[C@@H](C(=O)Nc3ccc4cnnn4c3)O[C@](C)(C(F)(F)F)[C@@H]2C)ccc(F)c1C(F)F (stereo in doubt) [Compound 160, rel-(2S,3R,4R,5S)-N-([1,2,3]triazolo[1,5-a]pyridin-6-yl)-3-(3-(difluoromethyl)-4-fluoro-2-methoxyphenyl)-4,5-dimethyl-5-(trifluoromethyl)tetrahydrofuran-2-carboxamide] | 0.1 to 1 µM
7 | COc1c(C2C(C(=O)Nc3cccnc3)OC(C)(C(F)(F)F)C2C)ccc(F)c1F (single isomer, unassigned) [Compound 29, 3-(3,4-difluoro-2-methoxy-phenyl)-4,5-dimethyl-N-(3-pyridyl)-5-(trifluoromethyl)tetrahydrofuran-2-carboxamide] | ≥ 1 µM
8 | CC(C)Oc1c([C@@H]2[C@@H](C(=O)Nc3ccnc(S(C)(=N)=O)c3)O[C@](C)(C(F)(F)F)[C@@H]2C)ccc(F)c1F (single isomer, unassigned) [Compound 117] | 0.1 to 1 µM
9 | COc1c([C@H]2[C@H](C(=O)Nc3cnc4c(c3)OCC4O)O[C@@](C)(C(F)(F)F)[C@H]2C)ccc(F)c1F (single isomer, unassigned) [Compound 408, rel-(2R*,3S*,4S*,5R*)-3-(3,4-difluoro-2-methoxyphenyl)-N-(3-hydroxy-2,3-dihydrofuro[3,2-b]pyridin-6-yl)-4,5-dimethyl-5-(trifluoromethyl)-tetrahydrofuran-2-carboxamide] | 0.01 to 0.1 µM
10 | COc1c([C@H]2[C@H](C(=O)Nc3ccnc(N4C(=O)[C@H]5C[C@@H]4CN5)c3)O[C@@](C)(C(F)(F)F)[C@H]2C)ccc(F)c1F [Compound 482, (2R,3S,4S,5R)-3-(3,4-difluoro-2-methoxyphenyl)-4,5-dimethyl-N-(2-((1R,4R)-3-oxo-2,5-diazabicyclo[2.2.1]heptan-2-yl)pyridin-4-yl)-5-(trifluoromethyl)tetrahydrofuran-2-carboxamide] | 0.01 to 0.1 µM
11 | C[C@@H]1[C@H](c2ccc(F)c(F)c2OC(F)F)[C@@H](C(=O)Nc2cc(S(C)(=O)=O)ccn2)O[C@]1(C)C(F)(F)F (single isomer, unassigned) [Compound 71] | ≥ 1 µM
12 | COc1c(C2C(C(=O)Nc3ccnc(C(O)CO)c3)OC(C)(C(F)(F)F)C2C)ccc(F)c1F (single isomer, unassigned) [Compound 43, 3-(3,4-difluoro-2-methoxy-phenyl)-N-[2-(1,2-dihydroxyethyl)-4-pyridyl]-4,5-dimethyl-5-(trifluoromethyl)tetrahydrofuran-2-carboxamide] | ≥ 1 µM
13 | Cc1nn(C(F)F)cc1NC(=O)[C@@H]1O[C@@](C)(C(F)(F)F)[C@@H](C)[C@H]1c1ccc(F)c(F)c1CN(C)C [Compound 672, (2R,3S,4S,5R)-N-(1-(difluoromethyl)-3-methyl-1H-pyrazol-4-yl)-3-(2-((dimethylamino)methyl)-3,4-difluorophenyl)-4,5-dimethyl-5-(trifluoromethyl)tetrahydrofuran-2-carboxamide] | 0.01 to 0.1 µM

More lines, now with the values ahead:

Row | IC50 | SMILES
14 | < 0.01 µM | COc1c([C@H]2[C@H](C(=O)Nc3ncco3)O[C@@](C)(C(F)(F)F)[C@H]2C)ccc(F)c1F [Compound 196, (2R,3S,4S,5R)-3-(3,4-difluoro-2-methoxyphenyl)-4,5-dimethyl-N-(oxazol-2-yl)-5-(trifluoromethyl)tetrahydrofuran-2-carboxamide]
15 | 0.01 to 0.1 µM | COc1c([C@H]2[C@H](C(=O)Nc3ccnc(OC4CCOCC4)c3)O[C@@](C)(C(F)(F)F)[C@H]2C)ccc(F)c1F [Compound 195, (2R,3S,4S,5R)-3-(3,4-difluoro-2-methoxyphenyl)-4,5-dimethyl-N-(2-((tetrahydro-2H-pyran-4-yl)oxy)pyridin-4-yl)-5-(trifluoromethyl)tetrahydrofuran-2-carboxamide]
16 | 0.01 to 0.1 µM | Cc1oncc1NC(=O)[C@@H]1O[C@@](C)(C(F)(F)F)[C@@H](C)[C@H]1c1ccc(F)c(F)c1OCCO [Compound 559, (2R,3S,4S,5R)-3-(3,4-difluoro-2-(2-hydroxyethoxy)phenyl)-4,5-dimethyl-N-(5-methylisoxazol-4-yl)-5-(trifluoromethyl)tetrahydrofuran-2-carboxamide]
17 | < 0.01 µM | COc1c([C@H]2[C@H](C(=O)Nc3cn(C4COC4)nc3C)O[C@@](C)(C(F)(F)F)[C@H]2C)ccc(F)c1F (single isomer, unassigned) [Compound 330]
18 | 0.01 to 0.1 µM | COC[C@@H](O)Cn1cc(NC(=O)[C@@H]2O[C@@](C)(C(F)(F)F)[C@@H](C)[C@H]2c2ccc(F)c(F)c2OC)c(C)n1 [Compound 245, (2R,3S,4S,5R)-3-(3,4-difluoro-2-methoxyphenyl)-N-(1-((S)-2-hydroxy-3-methoxypropyl)-3-methyl-1H-pyrazol-4-yl)-4,5-dimethyl-5-(trifluoromethyl)tetrahydrofuran-2-carboxamide]
19 | < 0.01 µM | COc1c(C2C(C(=O)Nc3ccnc(C(O)C(C)O)c3)OC(C)(C(F)(F)F)C2C)ccc(F)c1C (single isomer, unassigned) [Compound 144]
20 | < 0.01 µM | CCOc1c([C@H]2[C@H](C(=O)Nc3ccn4nnnc4c3)O[C@@](C)(C(F)(F)F)[C@H]2C)ccc(F)c1C (stereo in doubt) [Compound 121, rac-(2R,3S,4S,5R)-3-(2-ethoxy-4-fluoro-3-methylphenyl)-4,5-dimethyl-N-(tetrazolo[1,5-a]pyridin-7-yl)-5-(trifluoromethyl)tetrahydrofuran-2-carboxamide]
21 | < 0.01 µM | COc1c([C@H]2[C@H](C(=O)Nc3ccnc([S+](C)[O-])c3)O[C@@](C)(C(F)(F)F)[C@H]2C)ccc(F)c1F (single isomer, unassigned) [Compound 8]
22 | < 0.01 µM | Cc1nocc1NC(=O)[C@@H]1O[C@@](C)(C(F)(F)F)[C@@H](C)[C@H]1c1ccc(F)c(F)c1OCCO [Compound 558, (2R,3S,4S,5R)-3-(3,4-difluoro-2-(2-hydroxyethoxy)phenyl)-4,5-dimethyl-N-(3-methylisoxazol-4-yl)-5-(trifluoromethyl)tetrahydrofuran-2-carboxamide]
